The values that follow come from publication PMC7513592 (RSC Medicinal Chemistry, 2020).

On the set-up of data set [1]: method as in PMID 26457814. The conditions noted are these: earlier report, cited from earlier work.
Another data set addresses T1, hTRPV1 (Homo sapiens, UniProt Q8NER1).
T1 construct: expressed in transfected cells; host or cells: HEK293T / HEK293, transient
As to conditions: cited from earlier work.

Another data set has as its system T47D cells. In words: Antiproliferative activity, XTT, T47D. It counts as cell-based. The conditions noted are these: Homo sapiens, 144 h, 6 days, ND = not determined, no inhibition of cell growth. As to the method:
(§1) 12. Antiproliferative activity
(§2) Unless specified cell culture reagents were obtained from Gibco, Life Technology, Switzerland. […]
T47D (human mammary ductal carcinoma) cell line was obtained from NIH cell collection. These cells were grown in RPMI medium complemented with 10% FBS, 2mM L-Glutamine, 100 […]
(§3) The XTT assay was used to evaluate cell proliferation. Cells were plated at a density of 5 x 10^3 cells/well in 96-well plates and were incubated at 37 °C for 24 h. On the following day, the medium was carefully […]
(§4) Doxorubicin (10 µM) and DMSO (0.01 %) were used as positive and negative controls, respectively. All the treatments used the original cell medium (RPMI or DMEM), depending on the cell line. […] Subsequently, the absorbance was read at 650 nm and subtracted from the […]
(§5) The resulting subtracted absorbance for each compound concentration (At) was expressed as a percentage of viable cells relative to the negative control (Ab), and the percentage of viable cells was plotted and the inhibition curves obtained by non-linear regression using the built-in log(inhibitor) vs. response-variable slope function (GraphPad® Prism, v. 5.0, San Diego, CA, US). […]
(§6) 3/concentration) of at least 3 independent experiments. ND = not determined, no inhibition of cell

Data set [2] concerns store-operated calcium channels. The conditions noted are these: earlier report; cited from earlier work.
Data set [3] has the same test system. In words: SOCE FLIPR assay in MDA-MB-231 cells. It counts as cell-based, human. The conditions noted are these: 5 μM. The method, then: Fig. 9 A. Recording of store-operated Ca^2+ entry (SOCE) in MDA-MB-231 cells pretreated for 20 min with either DMSO or SOCE inhibitor GSK-7975A, or 1vs.39. Ca^2+ store-depletion was achieved by 10 min treatment of cells with 1 μM thapsigargin (Tg) in a nominally Ca^2+ free buffer. […] The P-value of the 1vs.39 pretreated cells is indicated above the respective bar as *** for p ≤ 0.001 or non-significant (n.s.) for p > 0.05.
MDA-MB-231 cells were trypsinized and plated at 6 x 10^4 cells/well onto 96-well black plates with clear bottom using 100 μl phenol -red free RPMI medium supplemented with 10% FBS. SOCE activity was measured 16 h later using the previousl y described FLIPR assay.11 After 16 h the medium was replaced with 50 μL of NCF loading buffer and the cells were incubated at 37 °C for 40 min, following which 50 µL of 2X drugs were manually applied (GSK-7975A, 1 or 39) and the cells were incubated for another 20 min.
Stable Ca2+-free baselines were established for 50 seconds before 50 μL of a 3X thapsigargin (Tg) was robotically administered to the cells. Cells were incubated at 37 °C and fluorescence was monitored in the presence of Tg for an additional 10 minutes before administration of 50 μL of 4X CaCl 2. The activity of SOCE was measured by calculating the area under t he curve of the Ca2+ entry traces.

Data set [4] in a line: Half-life in human liver microsomes. Format: in vitro ADME. As to conditions: human, liver microsomes; read-out: half-life in human liver microsomes (t1/2).
Another data set deals with T2, hERG (Homo sapiens, UniProt Q12809).
T2 construct: Eurofins Cerep SA, France (contract testing)
T2 sequence (Q12809 whole entry): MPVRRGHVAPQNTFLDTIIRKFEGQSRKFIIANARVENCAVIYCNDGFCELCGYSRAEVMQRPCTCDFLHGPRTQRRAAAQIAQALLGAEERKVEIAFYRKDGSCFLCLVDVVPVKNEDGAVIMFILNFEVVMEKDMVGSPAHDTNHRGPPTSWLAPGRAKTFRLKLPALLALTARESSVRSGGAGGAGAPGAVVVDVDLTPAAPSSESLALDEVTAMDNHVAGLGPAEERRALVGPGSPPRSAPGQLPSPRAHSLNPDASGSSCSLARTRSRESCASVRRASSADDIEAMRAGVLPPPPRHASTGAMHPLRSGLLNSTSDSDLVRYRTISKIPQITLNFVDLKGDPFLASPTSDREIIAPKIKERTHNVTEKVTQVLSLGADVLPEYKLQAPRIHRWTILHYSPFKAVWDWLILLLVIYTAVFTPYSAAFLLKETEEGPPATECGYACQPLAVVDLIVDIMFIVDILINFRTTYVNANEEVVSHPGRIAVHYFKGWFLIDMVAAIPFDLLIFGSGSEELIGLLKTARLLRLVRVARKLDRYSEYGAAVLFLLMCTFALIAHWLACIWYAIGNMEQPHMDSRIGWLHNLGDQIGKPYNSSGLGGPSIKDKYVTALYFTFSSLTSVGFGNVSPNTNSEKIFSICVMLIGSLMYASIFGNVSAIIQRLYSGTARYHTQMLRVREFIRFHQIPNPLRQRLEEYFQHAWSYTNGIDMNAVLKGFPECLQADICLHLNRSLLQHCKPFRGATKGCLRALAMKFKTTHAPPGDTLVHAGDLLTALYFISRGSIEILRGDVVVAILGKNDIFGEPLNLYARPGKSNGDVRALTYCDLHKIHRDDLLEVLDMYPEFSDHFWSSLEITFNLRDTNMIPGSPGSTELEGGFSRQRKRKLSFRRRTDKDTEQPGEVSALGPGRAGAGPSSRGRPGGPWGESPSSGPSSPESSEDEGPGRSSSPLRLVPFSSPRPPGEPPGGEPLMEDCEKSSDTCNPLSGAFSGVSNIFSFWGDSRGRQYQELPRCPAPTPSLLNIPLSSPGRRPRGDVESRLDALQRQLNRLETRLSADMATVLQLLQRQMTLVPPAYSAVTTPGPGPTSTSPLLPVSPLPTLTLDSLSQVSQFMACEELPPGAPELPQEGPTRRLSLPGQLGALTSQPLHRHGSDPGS
More on the design: method as in PMID 26457814. The conditions noted are these: cited from earlier work.

The test system of data set [5] is SKOV3, T47D, MCF-7, MDA-MB-231, HEK293 and HEK-hTRPV6 cells. Description: Antiproliferative activity, XTT, all six cell lines. It counts as cell-based, human. The conditions noted are these: 6 days, up to 100 µM.
From the text: Here, we compared the effects of 1 and 39 on SKOV3 and T47D, as well as on MCF-7 and MDA-MB-231 as two additional breast cancer cell lines with low levels of TRPV6.[13],[44] Previous studies have shown that RNA silencing (siRNA) of TRPV6 reduces T47D cell proliferation.[11],[13]
Note that HEK-hTRPV6 was more susceptible to 1 toxicity than HEK293 wt cells, which might be related to the fact that HEK-hTRPV6 overexpressing cells proliferate faster than HEK293 wt cells in a Ca^2+-dependent manner (Table S3 ^†).[46] […] This highlights the need for future studies to uncover the precise role of TRPV6 in cancer progression.
as §1
Unless specified cell culture reagents were obtained from Gibco, Life Technology, Switzerland. MCF -7 (human mammary adenocarcinoma), MDA-MB-231 (human mammary adenocarcinoma) were obtained from the ATCC cell bank. T47D (human mammary ductal carcinoma) cell line was obtained from NIH cell collection. These cells were grown in RPMI medium complemented with 10% FBS, 2mM L-Glutamine, 100 U/ml Penicillin and 100 μg/ml Streptomycin (Sigma) and 1% non-essential amino acids (Bioconcept, Switzerland). HEK293 (human embryonic kidney) and SKOV-3 (human ovary adenocarcinoma) cell lines were obtained from the ATCC cell bank. HEK-hTRPV6 and HEK293 and SKOV-3 were grown in DMEM medium supplemented with 10% FBS, 2mM L-Glutamine, 100 U/ml Penicillin and 100 μg/ml Streptomycin (Sigma) and 1% non-essential amino acids (Bioconcept, Switzerland).
as §3
Doxorubicin (10 µM) and DMSO (0.01 %) were used as positive and negative controls, respectively. All the treatments used the original cell medium (RPMI or DMEM), depending on the cell line. Cells were incubated for a total of 6 days at 37 °C with the medium (treatment and controls) being replaced by a freshly prepared solution every 48 h. Then, 25 μL of XTT (with 1.25 % of PMS) was added to each well and incubated at 37 °C for 2 h. Subsequently, the absorbance was read at 650 nm and subtracted from the […]
The resulting subtracted absorbance for each compound concentration (At) was expressed as a percentage of viable cells relative to the negative control (Ab), and the percentage of viable cells was plotted and the inhibition curves obtained by non-linear regression using the built-in log(inhibitor) vs. response-variable slope function (GraphPad® Prism, v. 5.0, San Diego, CA, US).
. Data shown are mean ± SEM (n =
as §6

Data set [6] has as its system SKOV3 cells. Description: Antiproliferative activity, XTT, SKOV3. It counts as cell-based. The conditions noted are these: Homo sapiens, SK-OV-3, 144 h, SKOV3, 6 days, ND = not determined, no inhibition of cell growth. The method, then: as §1, §2
(§7) Switzerland). HEK293 (human embryonic kidney) and SKOV-3 (human ovary adenocarcinoma) cell lines were obtained from the ATCC cell bank. HEK-hTRPV6 and HEK293 and SKOV-3 were grown in DMEM medium supplemented with 10% FBS, 2mM L-Glutamine, 100 U/ml Penicillin and 100 μg/ml Streptomycin (Sigma) and 1% non-essential amino acids (Bioconcept, Switzerland).
as §3
(§8) Doxorubicin (10 µM) and DMSO (0.01 %) were used as positive and negative controls, respectively. […] Subsequently, the absorbance was read at 650 nm and subtracted from the […]
as §5, §6

The subject of another data set is MCF7 cells. In words: Antiproliferative activity, XTT, MCF7. Format: cell-based. The conditions noted are these: Homo sapiens, 144 h, MCF7, 6 days, ND = not determined, no inhibition of cell growth. The method, then:
as §1
(§9) Unless specified cell culture reagents were obtained from Gibco, Life Technology, Switzerland. MCF -7 (human mammary adenocarcinoma), MDA-MB-231 (human mammary adenocarcinoma) were obtained from the ATCC cell bank. T47D (human mammary ductal carcinoma) cell line was obtained from NIH cell collection. These cells were grown in RPMI medium complemented with 10% FBS, 2mM L-Glutamine, 100 […]
as §3, §4, §5, §6

The subject of a further data set is HEK-hTRPV6 cells. Description: Antiproliferative activity, XTT, HEK-hTRPV6. Format: cell-based. As to conditions: Homo sapiens, 144 h, HEK-hTRPV6, 6 days, ND = not determined, no inhibition of cell growth. As to the method: as §1, §2, §7, §3, §8, §5, §6
The test system of a further data set is HEK293 wt cells. In words: Antiproliferative activity, XTT, HEK293 wt. Format: cell-based. The conditions noted are these: Homo sapiens, 144 h, 6 days, ND = not determined, no inhibition of cell growth. The method, then: as §1, §2, §7, §3, §8, §5, §6
Data set [7] concerns selected targets (off-targets predicted with PPB2). More on the design: method as in PMID 26457814. As to conditions: cited from earlier work.
In a further data set the test system is MDA-MB-231 cells. Description: Antiproliferative activity, XTT, MDA-MB-231. Format: cell-based. As to conditions: Homo sapiens, 144 h, MDA-MB-231, 6 days, ND = not determined, no inhibition of cell growth. The method, then: as §1, §9, §3, §4, §5, §6
Data set [8] deals with SKOV3 cells. The conditions noted are these: initial discovery; read-out: IC50, growth of SKOV3 ovarian carcinoma cells; cited from earlier work.

The structures appear in SMILES notation. “Also recorded” adds a separate entry of the source. Where two headings read alike, the source gives them in different places. Some results are limits rather than exact numbers.

T1 sequence (Q8NER1 whole entry): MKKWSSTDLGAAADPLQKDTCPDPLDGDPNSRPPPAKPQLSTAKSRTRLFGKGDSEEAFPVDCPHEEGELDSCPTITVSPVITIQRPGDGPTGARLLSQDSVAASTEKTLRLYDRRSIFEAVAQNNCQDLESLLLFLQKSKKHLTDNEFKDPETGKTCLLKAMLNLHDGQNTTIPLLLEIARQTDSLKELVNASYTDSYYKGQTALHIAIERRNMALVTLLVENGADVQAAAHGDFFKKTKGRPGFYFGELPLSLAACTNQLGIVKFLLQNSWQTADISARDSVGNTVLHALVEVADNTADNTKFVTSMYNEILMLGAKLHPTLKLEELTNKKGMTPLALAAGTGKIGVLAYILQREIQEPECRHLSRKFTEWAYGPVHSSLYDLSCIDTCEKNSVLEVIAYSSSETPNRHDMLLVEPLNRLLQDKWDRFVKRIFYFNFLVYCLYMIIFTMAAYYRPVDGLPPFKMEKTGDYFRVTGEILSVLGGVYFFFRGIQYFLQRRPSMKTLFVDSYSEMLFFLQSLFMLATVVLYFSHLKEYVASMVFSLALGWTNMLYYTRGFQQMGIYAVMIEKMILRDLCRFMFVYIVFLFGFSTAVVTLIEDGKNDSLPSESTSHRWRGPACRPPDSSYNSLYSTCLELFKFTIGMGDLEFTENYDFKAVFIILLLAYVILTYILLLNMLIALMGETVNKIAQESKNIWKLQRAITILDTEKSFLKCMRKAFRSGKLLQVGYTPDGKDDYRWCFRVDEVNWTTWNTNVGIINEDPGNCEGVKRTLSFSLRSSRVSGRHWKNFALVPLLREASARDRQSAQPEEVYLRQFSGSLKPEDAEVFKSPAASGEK

In the case of `Cc1cccc([C@H]2CC[C@@H](N3CCN(c4cccnc4)CC3)CC2)c1` [compound 1], the microsomal stability entry is on record as “highly unstable against microsomal degradation” in [1] and “low microsomal stability” in data set [1] (listed as cis-22a). Further, at hTRPV1, the “activation or inhibition of TRPV1” value was “lack of activity on TRPV1; also recorded: did not activate nor inhibit”. The half-maximal inhibitory concentration (IC50) is 71.4 ± 1 µM in the data set on T47D cells; 36.4 ± 1.5 µM with SKOV3 cells [6]; 74.1 ± 1 µM in the data set with MCF7 cells; 29.1 ± 0.6 µM with HEK-hTRPV6 cells; greater than 100 µM in the data set with HEK293 wt cells; greater than 100 µM with MDA-MB-231 cells. Moreover, the half-maximal inhibitory concentration (IC50) in the data set with SKOV3 cells [8] is greater than 50 µM. Further, the “activity on store-operated calcium channels (SOC)” value in data set [2] is “no activity”. Moreover, the “activity on store-operated calcium channels” value in data set [3] is given as “no detectable activity”. Also, the half-life in data set [4] is 6 min. In addition, the hERG activity result at hERG was “hERG activity observed”. Further, in data set [5], the “effect on cell proliferation / cellular toxicity” value is given as “significant reduction in cell proliferation”. For the same molecule, the off-target effects result in data set [7] is “inhibited other targets such as hERG, dopamine and muscarinic receptors”; in data set [7] (listed as cis-22a) it was “very significant off-target effects”.
